Test results: US5932217A, “Peptides which inhibit adhesion between leukocytes and endothelial cells” (priority 1994, dated 1999)

Legend:
[1] = system: rats inoculated intracisternally with Haemophilus influenzae type b lipooligosaccharide; assay: Rat meningitis model (H. influenzae LOS); type: in vivo; conditions: for Leukocytosis: Experiment #3, 600 nmol i.v., CSF 4 hours after LOS
Experimental: The experiments were performed according to established protocols (Wispelway et al., 1988, J. Clin. Invest., 82: 1339-1346). Purified Haemophilus influenzae type b strain DL42 lipooligosaccharide (LOS) was prepared for inoculation by sonication for 30 minutes, dilution to the desired concentration (20 ng/50 μl) in normal saline or PBS, and sonication for an additional 15 to 30 minutes just prior to use.
Briefly, anesthetized female Wistar rats were placed under a micromanipulator and inoculated intracisternally with a 25 gauge needle. After removal of 50 μl of CSF (without visible blood contamination), rats were inoculated intracisternally with 50 μl (20 ng) of LOS using a 1 ml syringe with a 25 gauge needle. Ten to fifteen minutes after inoculation with LOS, the rats were treated by intravenous administration of the test substance: a solution of an FHA peptide in PBS, a solution of a control peptide in PBS, or an equal volume of PBS alone.
Three hours after LOS inoculation, 5 μCi of ^125 I-radiolabelled albumin in 50 μl normal saline was administered intravenously. One hour later, CSF was collected via intracisternal puncture and blood samples were collected via intracardiac puncture. CSF leukocytosis was determined by manually counting white blood cells using a hemacytometer, and blood-brain barrier permeability was determined as the percent of radioactivity in whole blood that was present in the CSF. Blood samples were obtained immediately prior to inoculation, immediately prior to treatment, and at 4 hours post-inoculation for determination of peripheral white blood cell concentrations.

[2] = system: human umbilical vein endothelial cells; assay: Transendothelial migration of neutrophils; type: cell-based; conditions: peptides 0.01 mM
Experimental: Transendothelial migration of neutrophils was studied based on a method described by Muller et al. (1992), J. Exp. Med. 176: 819-828. Briefly, human neutrophils suspended in ice-cold Hanks balanced salt solution (HBSS) containing Ca^++ and Mg^++ (Sigma) were fluoresceinated by adding 3.3 μl/ml 5-(and 6-)carboxyfluorescein diacetate, succinimidyl ester (CFSE, Molecular Probes Inc., Oreg.). After incubation for 30 mins. on ice, neutrophils were washed twice in cold HBSS with Ca^++ and Mg^++ and resuspended in cold Medium 199 (M199, Sigma) to a final concentration of 10^6 /ml. Human umbilical vein endothelial cells were subcultured at confluence into 96-well tissue culture plates (Becton Dickinson Labware, Lincoln Park, N.J.) that were coated with hydrated collagen gel (Vitrogen; Collagen Corporation, Palo Alto, Calif.) and fibronectin. Endothelial cells were stimulated with 10 ng/ml TNF-alpha for 4 hours and washed three times with warm M199. Neutrophils (10^6 /ml) were preincubated with 0.01 mM of peptides or with 1 μM of native FHA in M199 for 5 mins. on ice before they were added in 100 μl aliquots to the endothelial cells. For positive control, neutrophils were pre-incubated with 25 μg/ml anti-CD18 mAb IB4. For negative control, neutrophils were treated with 25 μg/ml mAb W6/32 against HLA class I antigen (Dako, Carpinteria, Calif.). The cells were incubated for 1 hour at 37° C., 5% CO2. To terminate transmigration, the supernatant fluid was aspirated and the wells were filled with warm 1 mM EGTA (Sigma) in HBSS without Ca and Mg. The plates were covered with plate sealers (Dynatech, Alexandria, Va.) and centrifuged in an inverted position at 250 g for 3 mins. at room temperature. To remove residual non-transmigrated neutrophils from the endothelial cells, monolayers were washed twice with 200 μl of warm Hanks solution without Ca and Mg. Fluorescence was quantitated using a fluorescence counter (Millipore Cytofluor™ 2300). The percentage of transmigrated neutrophils was determined by comparing the amount of fluorescence of test wells with that measured in collagen- and fibronectin-coated wells without endothelial cells. […] Percent inhibition of transendothelial migration of neutrophils was calculated by comparing the number of transmigrated cells in wells containing neutrophils treated with peptide to neutrophils treated with M199 alone and arbitrarily set at 100% transendothelial migration (TEM).
The procedures for determining the neutrophil adherence to cultured endothelial cells and the transendothelial migration of neutrophils were identical with those of Example 9. Control values were the same as those shown in Example 9.

THP-1 cells = assay: Generation of Factor Xa by monocytes; type: cell-based; conditions: peptides 0.5 mM
Experimental: Factor Xa generation was determined by a modification of the method of Miletich et al. (1978), J. Biol. Chem. 253: 6908-6916. THP-1 cells (ATCC; 3×10^7 /ml) resuspended in RPMI 1640 (Bio Whittaker, Walkersville, Md.) were incubated with 100 μM ADP (Sigma), 2.5 mM CaCl2, 1 or 5 μg/ml Factor X (Hematologic Technologies Inc.) and 0.5 mM peptides at room temperature. After 20 minutes, 100 μl of the reaction mixture was transferred to 37° C. and supplemented with 100 μl of bovine factor VII- and Factor X-deficient plasma (Sigma). Coagulation was initiated by adding 100 μl of 25 mM CaCl2 and the clotting time was determined. Factor Xa procoagulant activity (ng/ml) was calculated by means of a standard curve constructed by serial concentrations of Factor Xa (Hematologic Technologies Inc.) from 50 to 250 ng/ml.

| Substance | BBB permeability ([1]; Experiment #3, 600 nmol) | Leukocytosis [1] | Leukocytosis ([1]; listed as ac/am FHA II) | neutropenia ([1]; peripheral white blood cells) | Inhibition of blood-brain barrier permeability ([1]; rat, in vivo) | % Inhibition of TEM ([2]; native FHA 1 μM, mAbs 25 μg/ml) | % Inhibition of TEM ([2]; native FHA 1 μM, mAbs 25 μg/ml, listed as acetyl/amide modified FHA peptide II) | Clotting time (THP-1 cells) | Factor Xa (THP-1 cells; from standard curve) | % Inhibition of TEM ([2]; FHA 1 μM, mAb IB4 25 μg/ml) | % Inhibition of TEM ([2]; FHA 1 μM, mAb IB4 25 μg/ml, listed as Intact FHA) |
| --- | --- | --- | --- | --- | --- | --- | --- | --- | --- | --- | --- |
| Ac-ETKEVDG-NH2 [Acetyl/Amide-FHA II] | 6.00 ± 5.14% | approximately 10,000 cells/ml | 10,500 ± 8523 cells/ml | No neutropenia was observed | not observed | 61 ± 6% | 61±6% | 40.0 ± 3.0 s | 28.5 ng/mL | – | – |
| Filamentous hemagglutinin [native FHA] | – | – | – | – | – | 82±1% | – | – | – | 82 ± 1% | 82±1% |
